Reference: patent publication US11725010B2, “Polyheterocyclic compounds as METTL3 inhibitors” (Storm Therapeutics Limited, priority 2019, dated 2023)
Like-named read-outs stand apart in the source and are kept apart here.

What was measured:
METTL3/14 [1] = biological target: T1, METTL3/14 (Homo sapiens (Human), UniProt Q86U44); test: biochemical
Caov-3 cells = test: Caov3 CTG proliferation assay; type: cell-based; conditions: Homo sapiens, Caov-3; treated for 120 hours, CellTiter-Glo luminescence; read-out: Caov3 cells IC50
Procedure: CTG Assay (Caov3 Cell Line)
Upon treatment, Coav-3 cells were incubated for 10 min at RT with the CellTiter-Glo reagent (G7571, Promega). Measurement of the luminescence signal was performed on a microplate reader (Ensight, PerkinElmer).
Caov3 CTG Assay—Proliferation Assay

KASUMI-1 cells = test: Kasumi cell assay (CellTiter-Glo cell growth); type: cell-based; conditions: Homo sapiens, Kasumi 1; treated for 120 hours, CellTiter-Glo luminescence; read-out: KASUMI1 cells IC50
Procedure: Upon treatment, Kasumil cells were incubated for 10 min at RT with the CellTiter-Glo reagent (G7571, Promega). Measurement of the luminescence signal was performed on a microplate reader (Ensight, PerkinElmer).

METTL3/14 [2] = biological target: T1, METTL3/14

T1 sequence (Q86U44 whole entry): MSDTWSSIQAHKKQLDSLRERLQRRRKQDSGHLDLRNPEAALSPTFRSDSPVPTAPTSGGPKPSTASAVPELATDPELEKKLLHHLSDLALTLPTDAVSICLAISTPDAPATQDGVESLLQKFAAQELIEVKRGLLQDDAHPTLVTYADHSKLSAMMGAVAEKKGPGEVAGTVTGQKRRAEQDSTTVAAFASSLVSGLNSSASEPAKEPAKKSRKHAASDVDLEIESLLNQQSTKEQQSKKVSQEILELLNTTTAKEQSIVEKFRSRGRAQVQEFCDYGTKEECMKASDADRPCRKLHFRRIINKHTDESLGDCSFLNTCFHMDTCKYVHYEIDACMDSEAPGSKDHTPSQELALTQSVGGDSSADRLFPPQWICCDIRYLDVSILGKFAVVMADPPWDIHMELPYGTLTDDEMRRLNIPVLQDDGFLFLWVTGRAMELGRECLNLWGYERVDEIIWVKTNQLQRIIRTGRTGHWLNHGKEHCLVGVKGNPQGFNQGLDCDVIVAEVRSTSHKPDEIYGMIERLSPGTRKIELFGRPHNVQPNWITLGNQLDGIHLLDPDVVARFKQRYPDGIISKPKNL
T1 sequence (Q9HCE5 whole entry partner): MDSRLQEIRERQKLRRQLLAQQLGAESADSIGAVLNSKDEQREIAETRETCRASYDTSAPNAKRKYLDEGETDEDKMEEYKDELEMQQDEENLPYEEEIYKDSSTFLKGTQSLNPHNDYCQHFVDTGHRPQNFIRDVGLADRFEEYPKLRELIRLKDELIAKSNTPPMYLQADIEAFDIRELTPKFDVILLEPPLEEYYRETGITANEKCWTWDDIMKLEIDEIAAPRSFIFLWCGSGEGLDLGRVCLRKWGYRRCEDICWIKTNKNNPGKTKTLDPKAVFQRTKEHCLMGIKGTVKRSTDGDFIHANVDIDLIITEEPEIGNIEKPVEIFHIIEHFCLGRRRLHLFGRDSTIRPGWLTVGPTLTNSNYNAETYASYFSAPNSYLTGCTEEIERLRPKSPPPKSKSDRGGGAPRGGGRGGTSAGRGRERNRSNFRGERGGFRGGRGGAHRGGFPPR

Compound | IC50 (METTL3/14 [1]) | IC50 (Caov-3 cells) | IC50 (KASUMI-1 cells) | IC50 (METTL3/14 [2])
c1cc(-n2cc(Cc3ccc4cc(CNCC5CCC5)[nH]c4c3)nn2)c2cncn2c1 [Example 144, (cyclobutyl-methyl)({6-[(1-{imidazo[1,5-a]pyridin-8-yl}-1H-1,2,3-triazol-4-yl)methyl]-1H-indol-2-yl}methyl) amine] | 19.3 nM | – | – | –
O=C(NCc1cnc2cc(CNCC34CC(C3)C4)[nH]c2c1)c1cc(=O)n2ccccc2n1 [Example 126, N-[(2-{[({bicyclo[1.1.1]pentan-1-yl}methyl)amino]methyl}-1H-pyrrolo[3,2-b]pyridin-6-yl)methyl]-4-oxo-4H-pyrido[1,2-a]pyrimidine-2-carboxamide] | – | 523 nM | 3070 nM | 6.1 nM
CC1(CNCc2cc3ccc(CNC(=O)c4cc(=O)n5ccccc5n4)cc3[nH]2)CCC1 [Compound 117, N-{[2-({[(1-methylcyclobutyl)methyl]amino}methyl)-1H-indol-6-yl]methyl}-4-oxo-4H-pyrido[1,2-a]pyrimidine-2-carboxamide] | – | 502 nM | 1730 nM | 6.1 nM
O=C(NCc1ccc2cc(CN3CC4(C3)CC(F)(F)C4)[nH]c2c1)c1cc(=O)n2ccccc2n1 [Compound 94, N-{[2-({6,6-difluoro-2-azaspiro[3.3]heptanean-2-yl}methyl)-1H-indol-6-yl]methyl}-4-oxo-4H-pyrido[1,2-a]pyrimidine-2-carboxamide] | – | 681 nM | 2240 nM | 6.1 nM
O=C(NCc1cc2[nH]c(CNCC3CCC3)cc2cn1)c1cc(=O)n2ccccc2n1 [Compound 130, N-[(2-{[(cyclobutylmethyl)amino]methyl}-1H-pyrrolo[3,2-c]pyridin-6-yl)methyl]-4-oxo-4H-pyrido[1,2-a]pyrimidine-2-carboxamide] | – | 457 nM | 3160 nM | 6.1 nM
FC12CC(CNCc3cc4ccc(Cn5cc(-c6cccn7cncc67)nn5)cc4[nH]3)(C1)C2 [Example 124, ({3-fluorobicyclo[1.1.1]pentan-1-yl}methyl)({6-[(4-{imidazo[1,5-a]pyridin-8-yl}-1H-1,2,3-triazol-1-yl)methyl]-1H-indol-2-yl}methyl)amine] | – | 266 nM | 662 nM | 6.1 nM
O=C(NCc1cc2[nH]c(CNCC3CCC3)cc2cc1F)c1cc(=O)n2ccccc2n1 [Compound 41, N-[[2-[(cyclobutylmethylamino)methyl]-5-fluoro-1H-indol-6-yl]methyl]-4-oxo-pyrido[1,2-a]pyrimidine-2-carboxamide] | – | 192 nM | 309 nM | 6.1 nM
c1cc(-c2cn(Cc3cc4[nH]c(CNCC5CCC5)cc4cn3)nn2)c2cn[nH]c2c1 [Example 60, N-(cyclobutylmethyl)-1-[6-[[4-(1H-indazol-4-yl)triazol-1-yl]methyl]-1H-pyrrolo[3,2-c]pyridin-2-yl]methanamine] | – | 423 nM | 2180 nM | 6.1 nM
CC(NCc1cc2ccc(CNC(=O)c3cc(=O)n4ccccc4n3)cc2[nH]1)C12CC(F)(C1)C2 (stereo not shown) [Compound 120, N-[(2-{[(1-{3-fluorobicyclo[1.1.1]pentan-1-yl}ethyl)amino]methyl}-1H-indol-6-yl)methyl]-4-oxo-4H-pyrido[1,2-a]pyrimidine-2-carboxamide] | – | 203 nM | 447 nM | 6.1 nM
O=C(NCc1cc2[nH]c(CN3CCC4(CCC4)C3)cc2cn1)c1cc(=O)n2ccccc2n1 [Compound 145, N-((2-((6-azaspiro[3.4]octan-6-yl)methyl)-1H-pyrrolo[3,2-c]pyridin-6-yl)methyl)-4-oxo-4H-pyrido[1,2-a]pyrimidine-2-carboxamide] | – | 201 nM | 717 nM | < 6.1 nM
O=C(NCc1ccc2c(F)c(CNCC3CCC3)[nH]c2c1)c1cc(=O)n2ccccc2n1 [Example 45, N-[(2-{[(cyclobutylmethyl)amino]methyl}-3-fluoro-1H-indol-6-yl)methyl]-4-oxo-4H-pyrido[1,2-a]pyrimidine-2-carboxamide] | – | 574 nM | 764 nM | 6.1 nM
CC1(NCc2cc3ccc(CNC(=O)c4cc(=O)n5ccccc5n4)cc3[nH]2)CCCC1 [Example 114, N-[(2-{[(1-methylcyclopentyl)amino]methyl}-1H-indol-6-yl)methyl]-4-oxo-4H-pyrido[1,2-a]pyrimidine-2-carboxamide] | – | 679 nM | 1460 nM | 6.1 nM
